The record followed here is patent US10875864B2, “Substituted imidazo[1,2-B]pyridazines as protein kinase inhibitors” (SUMITOMO DAINIPPON PHARMA ONCOLOGY, INC., priority 2011, dated 2020).

The subject of series [1] is phosphatidyl inositol-3-kinase (PI3K) family. Kind of series: Selectivity study, PI3K family. Format: biochemical. Conditions: multiple members.
A further series concerns NIH-3T3/PIM-2 xenografts. Kind of series: NIH-3T3/PIM-2 over-expression tumor xenograft. Format: in vivo, mouse. The text has this:
(§1) Male and female Nu/Nu mice were purchased from Harlan Sprague Dawley (Indianapolis, Ind.). Female Nu/Nu mice were used for all xenograft evaluations with the exception of the PC-3 xenografts where male Nu/Nu mice were used. Cell lines were expanded in vitro in complete media, and if adherent were harvested by trypsin-EDTA, centrifuged and resuspended in PBS 1:1 with Matrigel (BD Bioscienes). Cells were inoculated subcutaneously in the right hind flank of mice. When tumors reached 100-200 mm^3 by caliper measurement, mice were randomized and dosing of SGI-9481 or vehicle control began and continued every day for 5 days (QD×5) with 2 days off for 18-21 days. Tumor volumes and body weights were determined twice a week, and tumor weights were measured at the completion of the translational xenograft studies.
(§2) The prostate cancer cell line 22RV1 engineered to over-express PIM-1 as previously described (Mumenthaler, et al, Mol. Cancer Ther., 2009, 8(10)2882-93) was evaluated in vivo. A second model engineered to over-express PIM-2 was established using the NIH-3T3 mouse fibroblast cell line.

For a further series, the system named is 22RV1/PIM-1 xenografts. Kind of series: 22RV1/PIM-1 over-expression tumor xenograft. Format: in vivo, mouse.
Excerpt: as §1, §2

A further series relates to UM-UC-3 cells. Kind of series: Colony formation assay, UM-UC-3. Format: cell-based. The protocol: (§3) For shRNA growth experiments, 500 UM-UC-3 cells were seeded in a 12-well plate 48 hours post-transduction and cultured for 8-10 days at 37° C. in 5% CO2. Cells were fixed with 4% paraformaldehyde in PBS, washed twice with PBS, and stained with a crystal violet solution (1% crystal violet, 10% ethanol in water). Stained cells were washed thrice with water, and imaged after drying on a GelCount colony counter (Oxford Optronix Ltd., Oxford, UK). Total staining intensity per well was determined by lysis of cells with 200 μl of Triton X-100 lysis buffer (1% Triton X-100, 50 mM Tris-HCl pH 7.4, 150 mM NaCl, 1 mM EDTA). Lysates (100 μl) from each well were transferred to a clear 96-well plate and absorbance at 560 nm was determined on an Envision microplate reader. IC50 values were determined using GraphPad Prism software. For compound treated PC-3 and UM-UC-3, cells were seeded and stained as above, but were incubated with various concentrations of test compound or DMSO one day after seeding.
(§4) Translational models were also explored for PIM dependency using shRNA knockdown. The UM-UC-3 urinary epithelial bladder carcinoma cell line was used to verify and validate dependency on PIM-1 for growth. […] Reduction of PIM-1 mRNA and growth also were observed using both PIM-1 and PIM-2 shRNA in the androgen-independent prostate carcinoma cell line PC-3 (data not shown).

In another series the test system is UM-UC-3 xenograft tumors. Kind of series: UM-UC-3 established mouse xenograft. Format: in vivo.
Excerpt: as §1, with “When tumors reached 100-200 mm^3 by caliper measurement, mice were randomized and dosing of SGI-9481 or vehicle control began and continued every day for 5 days (QD×5) with 2 days off for 18-21 days.” left out

Another series deals with PC-3 cells. As to the kind of experiment: Colony formation assay, PC-3. Format: cell-based. The method, then:
as §3, §4

In a further series the test system is MV-4-11 (FLT3-ITD). As to the kind of experiment: MV-4-11 mouse xenograft. Format: in vivo.
Excerpt: as §1

In series [2] the test system is ML-2 cells (wild-type FLT3). As to the kind of experiment: ML-2 mouse xenograft. Format: in vivo. Conditions: ML-2, wild-type FLT3.
Excerpt: as §1

A further series deals with PC-3 xenograft tumors. As to the kind of experiment: PC-3 established mouse xenograft. Format: in vivo.
Excerpt: as §1, with “When tumors reached 100-200 mm^3 by caliper measurement, mice were randomized and dosing of SGI-9481 or vehicle control began and continued every day for 5 days (QD×5) with 2 days off for 18-21 days.” left out

For `CC(C)(O)[C@H]1CC[C@H](Nc2ccc3ncc(-c4cccc(C(F)(F)F)c4)n3n2)CC1` [Compound 8-31], the “activity against PI3K family members” value in series [1] is “inhibitory activity”. Moreover, the subcutaneous tumor growth entry in the series on NIH-3T3/PIM-2 xenografts (NIH-3T3/PIM-2 + compound vs vehicle) was “significantly inhibited”; in the series on 22RV1/PIM-1 xenografts (22RV1/PIM-1 + compound vs vehicle), “significantly reduced”. Moreover, the body weight change entry in the series on NIH-3T3/PIM-2 xenografts (NIH-3T3 xenograft mice) and in the series on 22RV1/PIM-1 xenografts (22RV1 xenograft mice) was “No significant changes in body weight” throughout. Moreover, the colony growth result in the series with UM-UC-3 cells and with PC-3 cells was “reduced colony growth” each time. The tumor growth inhibition entry (in the series on UM-UC-3 xenograft tumors (125 mg/kg); in series [2]; in the series on PC-3 xenograft tumors (125 mg/kg)) was “significant tumor growth inhibition” each time. Further, the “body weight and gross toxicity” value with UM-UC-3 xenograft tumors (oral 200 mg/kg) and in the series with PC-3 xenograft tumors (oral 200 mg/kg) was “no significant changes in body weight or gross adverse toxicity” throughout. Further, the “tumor growth by volume and final tumor weight” value in the series with UM-UC-3 xenograft tumors (oral 200 mg/kg) and in the series on PC-3 xenograft tumors (oral 200 mg/kg) was “significantly reduced” each time. In the series with MV-4-11 (FLT3-ITD), the “effect on established xenografts” value is “induced regressions”.
